The subject of experiment [1] is MRTF-A. Kind of experiment: MRTF-A subcellular localisation by immunofluorescence. The format is cell-based, mouse. The following applies: for effect of inhibitor on TPA block of serum-induced MRTF-A nuclear accumulation / inhibition of TPA-induced MRTF-A nuclear accumulation: U0126 10 μM, Gö6976 2 μM, Gö6983 6 μM; for effect of inhibitor on TPA block of serum-induced MRTF-A nuclear accumulation: TPA then 15% FCS; for inhibition of TPA-induced MRTF-A nuclear accumulation: pretreated 20 min. The procedure: (§1) NIH3T3 cells were cultured in DMEM, 10% FCS.
(§2) For immunofluorescence ([Vartiainen et al., 2007]), NIH3T3 cells were transfected in six-well plates (150000 /well), with 50 ng pEF-Flag-MRTF-PK derivatives, 100 ng pEF-MRTF-A derivatives, 50 ng MEK-R4F, 100 ng RafER, using Lipofectamine 2000 (Invitrogen).
(§3) Data was processed using GraphPad Prism version 5.03.

Experiment [2] concerns MRTF-A. Nature of the experiment: Site-specific MRTF-A phosphorylation (phosphospecific antibody immunoblot). The experiment is classed as cell-based, mouse. The following applies: for phosphorylation at analysed phospho-sites: 2 μM CD or 100 ng/ml TPA, sites analysed with phosphospecific antibodies; for S33 phosphorylation / S98 phosphorylation: 100 ng/ml TPA, U0126 10 μM. As for the experimental part: as §1, §3

For experiment [3], the system named is MRTF-A. Nature of the experiment: MRTF-A phosphorylation (SDS-PAGE mobility, immunoblot). The format is cell-based, mouse. The following applies: for inhibition of MRTF-A phosphorylation by PKC inhibitor: inhibitor pretreatment 20 min, 100 ng/ml TPA 30 min. The procedure:
as §1, §3

Experiment [4] relates to PKC isoforms. Conditions: 2 μM Gö6976; ref Martiny-Baron et al., 1993; cited from earlier work. As for the experimental part: as §1
In experiment [5] the test system is ERK. Kind of experiment: ERK activation immunoblot. The experiment is classed as cell-based. The following applies: inhibitor pretreatment 20 min, 100 ng/ml TPA 30 min. The procedure:
as §1, §3

For experiment [6], the system named is F-actin assembly in NIH3T3 cells. Nature of the experiment: F- and G-actin quantitation (F:G ratio). The experiment is classed as cell-based, mouse. Conditions: n = 3; for effect of inhibitor on TPA inhibition of F-actin assembly: inhibitor 20 min, TPA 20 min, 15% FCS 20 min. The procedure: Cells were processed as described ([Vartiainen et al., 2007]) with modifications. G- and F-actin were detected using 0.3 μM DN'ase I-Alexa Fluor 488 conjugate and 5 U/ml Alexa Fluor 647-phalloidin (Molecular Probes). After three washes in PBS, cells were analysed using the Cellomics ArrayScan. For each experiment, six technical replicates were performed. Statistical significance of alterations in F:G ratio was estimated by one-way ANOVA (Dunnett's multiple comparison test).

Experiment [7] concerns MRTF-A. Conditions: LatB; ref Vartiainen et al., 2007; cited from earlier work.
In experiment [8] the test system is RevΔ MRTF-A GFP derivatives (Crm1-dependent NES). Nature of the experiment: RevΔGFP nuclear export assay. Conditions: 50 nM LMB. The format is cell-based.
For experiment [9], the system named is MLC2. The following applies: MLC2 S19; 100 ng/ml TPA, then 15% FCS.
Experiment [10] relates to MRTF-SRF target genes. Conditions: 100 ng/ml TPA, 0.25-3 hr; n = 2.
For experiment [11], the system named is MRTF-A(2–204)-PK. Nature of the experiment: MRTF-A(2–204)-PK subcellular localisation by immunofluorescence. The experiment is classed as cell-based, mouse. The following applies: TPA. As for the experimental part: as §1, §2, §3
Experiment [12] has as its system RhoA. Conditions: 100 ng/ml TPA, then 15% FCS. As for the experimental part:
RhoGTP pull-downs used Rho activation assay (Millipore) with modifications. Cells were grown in 15 cm dishes, washed twice in ice-cold TBS, scraped in 400 μl 2x lysis buffer with 16% glycerol, made to 800 μl with water, and clarified. 20 μl was retained as input, and the remainder incubated with 20 μl GST-Rhotekin for 45 min at 4°C. After three 1 ml washes with Lysis buffer, proteins were eluted with SDS loading buffer and Rho recovery assessed by immunoblotting.

The subject of experiment [13] is MEK. The following applies: 10 μM U0126; ref Bain et al., 2007; cited from earlier work. The procedure: as §1
Experiment [14] has as its target T1, G-actin (Oryctolagus cuniculus, UniProt P68135).
T1 construct: Actin was prepared as described ([Mouilleron et al., 2008]); from tissue; host or cells: rabbit skeletal muscle (own knowledge of the cited method)
Nature of the experiment: Size exclusion chromatography of G-actin / Spacer1-RPEL2 peptide complexes. Conditions: SEC, Spacer1-RPEL2 peptides; for apparent molecular mass of G-actin complex: Superdex 200, 20 mM Tris (pH 8), 100 mM NaCl; for apparent stoichiometry of G-actin binding: Superdex 200, pH 8. The format is binding. As for the experimental part:
Peptides were synthesised by the London Research Institute (LRI) peptide synthesis platform. MRTF-A(94–142), FAM-MRTF-A(62–104) and FAM-MRTF-A(67–98) derivatives are as in Figure 4—figure supplement 2A. Phosphorylated 10–12 mer peptides for immunizations were centred on the phosphoacceptor site (see Table 1). Actin was prepared as described ([Mouilleron et al., 2008]).
Preparation of LatB-actin and fluorescence polarisation anisotropy assay were described ([Guettler et al., 2008]). Size exclusion chromatography was on Superdex 200 column equilibrated in 20 mM Tris (pH 8), 100 mM NaCl, 3 mM MgCl2, 0.2 mM EGTA, 0.3 mM TCEP [(tris(2-carboxyethyl)phosphine)], 5% (v/v) glycerol, calibrated with globular proteins of known molecular weight.

The mark [15] stands for this setting: NIH3T3 cells, 100 ng/ml TPA, 2 μM CD or 50 nM LMB.
[16] abbreviates: 100 ng/ml TPA 20 min, then 15% FCS 20 min.

Like-named read-outs stand apart in the source and are kept apart here. Ends that are not written are not given here.

As for `CC/C(=C(\c1ccc(O)cc1)c1ccc(OCCN(C)C)cc1)c1ccccc1` [4-hydroxytamoxifen], the “block of serum-induced nuclear accumulation by pre-treatment” value in experiment [1] (Raf-ER cells, 1 μM 4OHT 20 min, then 15% FCS 20 min) is “Only pre-treatment with TPA significantly blocked serum-induced nuclear accumulation”.

`C=C1[C@@H](C)[C@H]2[C@H](Cc3ccccc3)NC(=O)[C@]23[C@H](OC(C)=O)/C=C/[C@@](C)(O)C(=O)[C@@H](C)C/C=C/[C@H]3[C@@H]1O` [CD, cytochalasin D]: the “phosphorylation at analysed phospho-sites” value in experiment [2] was “induced a gradual accumulation at all analysed sites”. For the same molecule, in experiment [3] (2 μM CD), the “phosphorylation of MRTF-A/MC fusion protein” value is recorded as “exhibited CD-induced phosphorylation similar to that seen in MRTF-A”. The “ERK dependence of CD-induced MRTF-A phosphorylation” value in experiment [3] (2 μM CD with and without 10 μM U0126) is listed as “this occurred independently of ERK”. Moreover, in [3] (15% FCS or 2 μM CD, 10 μM U0126), the “phosphorylation of MRTF-A B2A (NLS mutant)” value is “could be induced by serum, but not CD”. Moreover, in [3] (setting [15]), the MRTF-A phosphorylation entry is on record as “also induced MRTF-A phosphorylation”.

As for `Cn1c2ccccc2c2c3c(c4c5ccccc5n(CCC#N)c4c21)CNC3=O` [Gö6976], the PKC isoform block entry in [4] is reported as “insufficient to block non-novel PKC isoforms”. For the same molecule, the “inhibition of TPA-induced ERK activation” value in [5] is listed as “only the latter completely inhibited ERK activation”. The “effect of inhibitor on TPA block of serum-induced MRTF-A nuclear accumulation” value in experiment [1] was “insensitive to U0126 and Gö6976”. Moreover, the “inhibition of TPA-induced MRTF-A nuclear accumulation” value in experiment [1] (100 ng/ml TPA) is “sensitive to both the conventional-PKC inhibitor Gö6976 and the pan-PKC inhibitor Gö6983”. The “effect of inhibitor on TPA inhibition of F-actin assembly” value in experiment [6] is given as “not by U0126 or Gö6976”. Besides, in experiment [3], the “inhibition of MRTF-A phosphorylation by PKC inhibitor” value is “only the latter completely inhibited ERK activation and MRTF-A phosphorylation”.

Turning to `COc1ccc2c(c1)c(C1=C(c3c[nH]c4ccccc34)C(=O)NC1=O)cn2CCCN(C)C` [Gö6983], the “inhibition of TPA-induced ERK activation” value in [5] is “completely inhibited ERK activation”. Moreover, in experiment [1], the “effect of inhibitor on TPA block of serum-induced MRTF-A nuclear accumulation” value is listed as “relieved by Gö6983”. The “inhibition of TPA-induced MRTF-A nuclear accumulation” value in [1] (100 ng/ml TPA) was “sensitive to both the conventional-PKC inhibitor Gö6976 and the pan-PKC inhibitor Gö6983”. Moreover, in [6], the “effect of inhibitor on TPA inhibition of F-actin assembly” value is recorded as “relieved by Gö6983”. Besides, the “inhibition of MRTF-A phosphorylation by PKC inhibitor” value in experiment [3] was “completely inhibited ERK activation and MRTF-A phosphorylation”.

Turning to `C/C1=C/C(=O)O[C@@H]2C[C@@H](CC[C@H](C)/C=C\CC1)O[C@@](O)([C@@H]1CSC(=O)N1)C2` [LatB, Latrunculin B], the “cytoplasmic localisation of MRTF-A” value in experiment [7] is “restore cytoplasmic localisation of MRTF-A”. Also, in experiment [3] (NIH3T3, 15% FCS 30 min, then 1 μM LatB), the “return of serum-induced MRTF-A phosphorylation” value is “rapid return of MRTF-A phosphorylation to prestimulation levels”.

Take `CCC(=C/[C@H](C)C/C=C/C(C)=C/[C@@H](C)C(=O)[C@@H](C)[C@H](O)[C@@H](C)C/C(C)=C/C(=O)O)/C=C/[C@@H]1OC(=O)C=C[C@@H]1C` [Leptomycin B]: the “nuclear localisation of RevΔMRTF-A derivatives” value is given as “Nuclear localisation could be restored by serum stimulation, or by treatment with Leptomycin B (LMB)” in experiment [8] and “both proteins accumulated in the nucleus upon LMB treatment” in [8] (listed as LMB). The MRTF-A phosphorylation result in experiment [3] (setting [15]) was “did not induce phosphorylation unless the cells were simultaneously stimulated with CD or FCS”.

Take `CCCCCCCCCCCCCC(=O)O[C@@H]1[C@@H](C)[C@@]2(O)[C@@H](C=C(CO)C[C@]3(O)C(=O)C(C)=C[C@@H]23)[C@H]2C(C)(C)[C@]12OC(C)=O` [TPA]: the “inhibition of serum-induced MRTF-A nuclear accumulation by TPA pretreatment” value in [1] (setting [16]) is recorded as “effectively blocked MRTF-A nuclear accumulation upon subsequent serum stimulation”. The “proportion of cells with predominantly nuclear MRTF-A” value in experiment [1] (100 ng/ml TPA, 20 min) is listed as “substantially increased the proportion of cells with predominantly nuclear MRTF-A”. Moreover, the “serum-induced phosphorylation of MLC2” value in experiment [9] is “inhibited serum-induced accumulation of Rho.GTP, and phosphorylation of MLC2, independently of ERK but in a PKC-dependent manner”. In addition, the “induction of transcription of MRTF-SRF target genes” value in experiment [10] is given as “induced transcription of MRTF-SRF target genes in an ERK-dependent manner”. In [6] (setting [16]), the “serum-induced F-actin assembly” value was “inhibited serum-induced F-actin assembly”. Further, the “nuclear accumulation of MRTF-A(2–204)-PK” value in [11] is “promoted nuclear accumulation of MRTF-A(2–204)-PK”. In experiment [12], the “serum-induced accumulation of Rho.GTP” value is reported as “inhibited serum-induced accumulation of Rho.GTP”. Also, in [2], the S33 phosphorylation result is reported as “could be slightly increased upon serum or TPA stimulation”, the S98 phosphorylation result is listed as “by TPA in a U0126-sensitive fashion” and the “phosphorylation at analysed phospho-sites” value is reported as “induced a gradual accumulation at all analysed sites”. Further, the MRTF-A phosphorylation entry in experiment [3] is “also induced MRTF-A phosphorylation”.

Consider `N#CC(=C(/N)Sc1ccccc1N)/C(C#N)=C(/N)Sc1ccccc1N` [U0126], for which, in experiment [13], the “MEK inhibition and selectivity” value is “sufficient to inhibit MEK activation without substantial effects on other kinases”. The “effect of inhibitor on TPA block of serum-induced MRTF-A nuclear accumulation” value in experiment [1] was “insensitive to U0126 and Gö6976”. Besides, the “effect of inhibitor on TPA inhibition of F-actin assembly” value in experiment [6] is “not by U0126 or Gö6976”. Moreover, in [2], the S33 phosphorylation entry is listed as “Induced S33 phosphorylation was U0126-sensitive” and the S98 phosphorylation entry is “U0126-sensitive”.

In the case of “S1-R2 WT: Spacer1-RPEL2 peptide (LKLKRARLADDLNEKIAQRPGPMELVEKNILPVESSLKEAIIVGQVNYP; UniProt Q8K4J6 94-142, looked up, fragment)”, in [14], the “apparent molecular mass of G-actin complex” value came to 70.9 kDa and the “apparent stoichiometry of G-actin binding” value was 1.5 actins.

“S1-R2 pS98: Spacer1-RPEL2 peptide phosphorylated at S98 (LKLKRARLADDLNEKIAQRPGPMELVEKNILPVESSLKEAIIVGQVNYP; also: phosphorylated at S98, position not located in chain; UniProt Q8K4J6 94-142, looked up, fragment)”: in experiment [14], the “apparent molecular mass of G-actin complex” value came to 64.1 kDa and the “apparent stoichiometry of G-actin binding” value is listed as 1.4 actins.

Source of the values: PMC4963197, “Phosphorylation acts positively and negatively to regulate MRTF-A subcellular localisation and activity” (eLife, 2016).
